System: rodent lifetime carcinogenesis bioassay, tumor incidence TD50
Test: chronic cancer bioassays in animals – CPDB, compiled studies (AID 1745844)
Details: inhaled

With `C=CCl` the TD50 (hamster, strain Syrian Golden, females, site: all sites, lesion: hemangiosarcoma, dosed 26 weeks, study length 104 weeks) was 78.6 mg/kg/day, the TD50 (hamster, strain Syrian Golden, females, site: all sites, lesion: hemangiosarcoma, dosed 52 weeks, study length 104 weeks) was 314 mg/kg/day and the TD50 (hamster, strain Syrian Golden, females, site: all sites, lesion: hemangiosarcoma, dosed 78 weeks, study length 104 weeks) was 1920 mg/kg/day. The TD50 (hamster, strain Syrian Golden, females, site: mammary gland, lesion: carcinoma, dosed 26 weeks, study length 104 weeks) was 32.3 mg/kg/day, the TD50 (hamster, strain Syrian Golden, females, site: mammary gland, lesion: carcinoma, dosed 52 weeks, study length 104 weeks) was 27.7 mg/kg/day and the TD50 (hamster, strain Syrian Golden, females, site: mammary gland, lesion: carcinoma, dosed 78 weeks, study length 104 weeks) was 61 mg/kg/day. It also gave a TD50 (hamster, strain Syrian Golden, females, site: skin, lesion: carcinoma, dosed 52 weeks, study length 104 weeks) of 121 mg/kg/day, a TD50 (hamster, strain Syrian Golden, females, site: stomach, lesion: adenoma, dosed 26 weeks, study length 104 weeks) of 47.2 mg/kg/day and a TD50 (hamster, strain Syrian Golden, females, site: stomach, lesion: adenoma, dosed 52 weeks, study length 104 weeks) of 1010 mg/kg/day. The TD50 (hamster, strain Syrian Golden, females, site: stomach, lesion: adenoma, dosed 78 weeks, study length 104 weeks) was 205 mg/kg/day, the TD50 (hamster, strain Syrian Golden, males, site: acoustic duct, lesion: epithelioma, dosed 30 weeks, study length 101 weeks) was 855 mg/kg/day and the TD50 (hamster, strain Syrian Golden, males, site: all sites, lesion: leukemia, dosed 30 weeks, study length 101 weeks) was 25800 mg/kg/day. For the same molecule, the TD50 (hamster, strain Syrian Golden, males, site: extrahepatic tissue, lesion: angioma, dosed 30 weeks, study length 101 weeks) was 9800 mg/kg/day, the TD50 (hamster, strain Syrian Golden, males, site: forestomach, lesion: epithelioma, dosed 30 weeks, study length 101 weeks) was 55 mg/kg/day and the TD50 (hamster, strain Syrian Golden, males, site: liver, lesion: angioma, dosed 30 weeks, study length 101 weeks) was 2380 mg/kg/day. It also gave a TD50 (hamster, strain Syrian Golden, males, site: liver, lesion: angiosarcoma, dosed 30 weeks, study length 101 weeks) of 91800 mg/kg/day, a TD50 (hamster, strain Syrian Golden, males, site: liver, lesion: hepatoma, dosed 30 weeks, study length 101 weeks) of 1730 mg/kg/day and a TD50 (hamster, strain Syrian Golden, males, site: skin, lesion: epithelioma, dosed 30 weeks, study length 101 weeks) of 9350 mg/kg/day. For the same molecule, the TD50 (hamster, strain Syrian Golden, males, site: skin, lesion: melanoma, dosed 30 weeks, study length 101 weeks) was 7630 mg/kg/day, the TD50 (mouse, strain Charles River CD1, females, site: liver, lesion: hemangiosarcoma, dosed 26 weeks, study length 58 weeks) was 91.9 mg/kg/day and the TD50 (mouse, strain Charles River CD1, females, site: lung, lesion: alveolar/bronchiolar tumor, dosed 26 weeks, study length 58 weeks) was 142 mg/kg/day. The TD50 (mouse, strain Charles River CD1, females, site: mammary gland, lesion: malignant tumor, dosed 26 weeks, study length 58 weeks) was 249 mg/kg/day, the TD50 (mouse, strain Charles River CD1, males, site: liver, lesion: hemangiosarcoma, dosed 26 weeks, study length 78 weeks) was 32 mg/kg/day and the TD50 (mouse, strain Charles River CD1, males, site: lung, lesion: alveolar/bronchiolar tumor, dosed 26 weeks, study length 78 weeks) was 88.7 mg/kg/day. The TD50 (mouse, strain Swiss, females, site: all sites, lesion: hemangiosarcoma, dosed 26 weeks, study length 104 weeks) was 12.5 mg/kg/day, the TD50 (mouse, strain Swiss, females, site: all sites, lesion: hemangiosarcoma, dosed 52 weeks, study length 104 weeks) was 13.8 mg/kg/day and the TD50 (mouse, strain Swiss, females, site: all sites, lesion: hemangiosarcoma, dosed 78 weeks, study length 104 weeks) was 36.1 mg/kg/day. The TD50 (mouse, strain Swiss, females, site: any site (literature study), lesion: several types, types named in the paper, dosed 30 weeks, study length 77 weeks) was 600 mg/kg/day, the TD50 (mouse, strain Swiss, females, site: extrahepatic tissue, lesion: angioma, dosed 30 weeks, study length 77 weeks) was 70900 mg/kg/day and the TD50 (mouse, strain Swiss, females, site: extrahepatic tissue, lesion: angiosarcoma, dosed 30 weeks, study length 77 weeks) was 736 mg/kg/day. The TD50 (mouse, strain Swiss, females, site: forestomach, lesion: epithelioma, dosed 30 weeks, study length 77 weeks) was 9820 mg/kg/day, the TD50 (mouse, strain Swiss, females, site: liver, lesion: angioma, dosed 30 weeks, study length 77 weeks) was 196 mg/kg/day and the TD50 (mouse, strain Swiss, females, site: liver, lesion: angiosarcoma, dosed 30 weeks, study length 77 weeks) was 98.8 mg/kg/day. It also gave a TD50 (mouse, strain Swiss, females, site: liver, lesion: hepatoma, dosed 30 weeks, study length 77 weeks) of 12200 mg/kg/day, a TD50 (mouse, strain Swiss, females, site: lung, lesion: adenoma, dosed 30 weeks, study length 77 weeks) of 402 mg/kg/day and a TD50 (mouse, strain Swiss, females, site: lung, lesion: carcinoma, dosed 26 weeks, study length 104 weeks) of 36.6 mg/kg/day. The TD50 (mouse, strain Swiss, females, site: lung, lesion: carcinoma, dosed 52 weeks, study length 104 weeks) was 55.5 mg/kg/day, the TD50 (mouse, strain Swiss, females, site: lung, lesion: carcinoma, dosed 78 weeks, study length 104 weeks) was 143 mg/kg/day and the TD50 (mouse, strain Swiss, females, site: mammary gland, lesion: carcinoma, dosed 26 weeks, study length 104 weeks) was 10.6 mg/kg/day. The TD50 (mouse, strain Swiss, females, site: mammary gland, lesion: carcinoma, dosed 30 weeks, study length 77 weeks) was 3750 mg/kg/day, the TD50 (mouse, strain Swiss, females, site: mammary gland, lesion: carcinoma, dosed 52 weeks, study length 104 weeks) was 22.9 mg/kg/day and the TD50 (mouse, strain Swiss, females, site: mammary gland, lesion: carcinoma, dosed 78 weeks, study length 104 weeks) was 32.2 mg/kg/day. It also gave a TD50 (mouse, strain Swiss, females, site: skin, lesion: epithelioma, dosed 30 weeks, study length 77 weeks) of 25100 mg/kg/day, a TD50 (mouse, strain Swiss, males, site: any site (literature study), lesion: several types, types named in the paper, dosed 30 weeks, study length 77 weeks) of 26.1 mg/kg/day and a TD50 (mouse, strain Swiss, males, site: extrahepatic tissue, lesion: angioma, dosed 30 weeks, study length 77 weeks) of 12300 mg/kg/day. The TD50 (mouse, strain Swiss, males, site: extrahepatic tissue, lesion: angiosarcoma, dosed 30 weeks, study length 77 weeks) was 8030 mg/kg/day, the TD50 (mouse, strain Swiss, males, site: forestomach, lesion: epithelioma, dosed 30 weeks, study length 77 weeks) was 5190 mg/kg/day and the TD50 (mouse, strain Swiss, males, site: liver, lesion: angioma, dosed 30 weeks, study length 77 weeks) was 1080 mg/kg/day. The TD50 (mouse, strain Swiss, males, site: liver, lesion: angiosarcoma, dosed 30 weeks, study length 77 weeks) was 70.8 mg/kg/day, the TD50 (mouse, strain Swiss, males, site: liver, lesion: hepatoma, dosed 30 weeks, study length 77 weeks) was 25200 mg/kg/day and the TD50 (mouse, strain Swiss, males, site: lung, lesion: adenoma, dosed 30 weeks, study length 77 weeks) was 14 mg/kg/day. The TD50 (mouse, strain Swiss, males, site: skin, lesion: epithelioma, dosed 30 weeks, study length 77 weeks) was 2690 mg/kg/day.

Source: PubChem BioAssay AID1745844 (Carcinogenic Potency Database (CPDB), 2022)
